Laboratory results taken from publication PMC9374667 (Communications Biology, 2022).
Where “and” joins values, the source holds several entries; their conditions need not be identical. Equal values may be shown once.

Key:
IKKε [1] = biological target: T1, IKKε (Mus musculus, UniProt Q9R0T8); assay: IKKε kinase activity in TNF-α induced 3T3-L1 adipocytes; assay type: cell-based, Murine; set-up: endogenous in cells; host or cells: differentiated 3T3-L1 adipocytes; IKKε kinase activity: unit not given here; conditions: for IKKε kinase activity: Figure 7h, replicates
T1 sequence (Q9R0T8 1-717): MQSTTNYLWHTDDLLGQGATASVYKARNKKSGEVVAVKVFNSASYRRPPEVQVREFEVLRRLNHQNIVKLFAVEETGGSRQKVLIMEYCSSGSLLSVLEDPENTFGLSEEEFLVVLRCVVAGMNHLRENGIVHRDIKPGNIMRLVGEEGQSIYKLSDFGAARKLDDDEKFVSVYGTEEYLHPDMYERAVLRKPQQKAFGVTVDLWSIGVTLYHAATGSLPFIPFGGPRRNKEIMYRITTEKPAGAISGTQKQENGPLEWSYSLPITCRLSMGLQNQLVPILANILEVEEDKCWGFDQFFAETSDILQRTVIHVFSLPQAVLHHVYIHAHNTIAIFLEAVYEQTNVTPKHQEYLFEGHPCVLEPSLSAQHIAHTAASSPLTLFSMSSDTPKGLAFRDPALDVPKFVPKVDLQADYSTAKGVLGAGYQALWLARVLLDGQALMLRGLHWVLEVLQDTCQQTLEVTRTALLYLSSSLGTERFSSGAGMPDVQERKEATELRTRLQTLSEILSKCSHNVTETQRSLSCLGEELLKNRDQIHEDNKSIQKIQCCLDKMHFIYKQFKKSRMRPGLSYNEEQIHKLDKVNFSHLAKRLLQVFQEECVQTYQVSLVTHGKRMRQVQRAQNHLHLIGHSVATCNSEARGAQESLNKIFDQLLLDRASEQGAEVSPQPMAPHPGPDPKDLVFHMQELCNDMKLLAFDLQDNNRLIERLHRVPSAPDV

[2] = system: IKKε, TBK1, p-TBK1, UCP1, p-AMPKα; assay: Western blotting of eWAT; assay type: in vivo; conditions: db/db mice
Procedure: The adipose tissue or 3T3-L1 adipocytes were homogenized by ultrasound in an ice‐cold RIPA lysis buffer containing 1% PMSF and centrifuged at 12,000 × g at 4°C for 15 min to collect the supernatant. The BCA protein assay kit (Beyotime, Shanghai, China) was used to detect the total protein concentration. Proteins (20-30 μg) of the sample were separated by 10% SDS-PAGE gel and transferred onto polyvinylidene difluoride (PVDF) membranes. Then the PVDF membranes were blocked in 5% skim milk powder in TBS containing 1% Tween-20 (TBST) for 2 h at room temperature and washed with TBST for 3 times. The membranes were incubated with the appropriate primary antibody, IKKε (1:1000 dilution), TBK1 (1:1000 dilution), p-TBK1 Ser172 (1:1000 dilution), p-AMPKα Thr172 (1:1000 dilution), UCP1 (1:1000 dilution), and GAPDH (1:1000 dilution) in the blocking buffer solution at 4 °C overnight. After washing, the membranes were incubated with horseradish peroxidase-conjugated secondary antibodies (in 5% skim milk powder) for 1 h at room temperature. Finally, the membranes were treated with enhanced chemiluminescence agents (Tanon, Shanghai, China) and the signals were monitored using the Tanon 5200 multi chemiluminescent imaging system (Tanon, Shanghai, China).

IKKε [3] = biological target: T1, IKKε; assay: IKKε-knockdown 3T3-L1 adipocytes (siRNA; western blotting, cAMP, glycerol, ISO); assay type: cell-based, Murine; set-up: endogenous in cells; host or cells: differentiated 3T3-L1 adipocytes; conditions: for Glycerol (Figure 9l) / UCP1 (western blotting, Figure 9J) / cAMP (Figure 9k): 10μM BJ +
Procedure: Small interference RNA transfection (siRNA) was performed using 4 μM TBK1 siRNA (siTBK1) or 4 μM […]ε) or corresponding NC siRNA (siNC). The epididymal adipose tissue was dissected, the fresh adipose tissue was weighed and rapidly rinsed with PBS. The adipose tissue was cut and incubated with isoproterenol (10 μM) for 2 h, and homogenized in a cold cleavage buffer to prepare the adipose tissue homogenate. Then the homogenate was centrifuged at 12,000 × g at 4 °C for 15 min, and the supernatant was collected. […] Then the cells were lysed in a petri dish, scraped off, and centrifuged at 12,000 × g at 4 °C for 15 min before the supernatant was collected. […] And concentrations were further standardized according to protein concentration. The adipose tissue or 3T3-L1 adipocytes were homogenized by ultrasound in an ice-cold RIPA lysis buffer containing 1% PMSF and centrifuged at 12,000 × g at 4°C for 15 min to collect the supernatant. The BCA protein assay kit (Beyotime, Shanghai, China) was used to detect the total protein concentration. Proteins (20-30 μg) of the sample were separated by 10% SDS-PAGE gel and transferred onto polyvinylidene difluoride (PVDF) membranes. Then the PVDF membranes were blocked in 5% skim milk powder in TBS containing 1% Tween-20 (TBST) for 2 h at room temperature and washed with TBST for 3 times. […] After washing, the membranes were incubated with horseradish peroxidase-conjugated secondary antibodies (in 5% skim milk powder) for 1 h at room temperature. Finally, the membranes were treated with enhanced chemiluminescence agents (Tanon, Shanghai, China) and the signals were monitored using the Tanon 5200 multi chemiluminescent imaging system (Tanon, Shanghai, China).

[4] = Berberine content in adipose tissue of db/db mice (HPLC); conditions: BJ 75 and 150 mg/kg, BBR 150 mg/kg, crushing, extracting
Excerpt: Response: We thank the Reviewer for this comment. In line with the Reviewer ’s
each group by crushing, extracting, and HPLC analysis.
based on the improved bioavailability.
Figure 1. (a) The positions of the peaks of berberine standards in the HPLC assay.

For `CC(C)Cc1ccc(C(C)C(=O)[O-])cc1.COc1ccc2cc3[n+](cc2c1OC)CCc1cc2c(cc1-3)OCO2.O.O.O.O` [BJ, berberine-ibuprofen], the IKKε kinase activity (IKKε [1]; TNF-α(50ng/ml)+3μM BJ) was 47.3662 and 40.5834 and 38.8273 and 37.402 and 43.0522 and 46.31, the IKKε kinase activity (IKKε [1]; TNF-α(50ng/ml)+10μM BJ) was 22.5765 and 26.127 and 25.2998 and 23.4546 and 23.7218 and 26.8142 and the “IKKε expression level / kinase activity” value (IKKε [1]; TNF-α induced 3T3-L1 adipocytes, BJ treatment for 24 h) was “markedly decreased”. The “Expression of UCP1 and phosphorylation of TBK1 at Ser172 in eWAT” value [2] was “increased”, the “Protein levels of IKKε and TBK1 in eWAT” value ([2]; both doses of BJ, western blotting) was “significantly reduced” and the “AMPKα Thr172 phosphorylation (p-AMPKα) in eWAT” value ([2]; inhibited in db/db eWAT) was “restored”. For the same compound, the “IKKϵ (western blotting, Figure 9h)” value (IKKε [3]; 10μM BJ) was 0.1875 and 0.2278 and 0.214, the “UCP1 (western blotting, Figure 9i)” value (IKKε [3]; 10μM BJ) was 0.3644 and 0.4778 and 0.4436 and the “Expression of UCP1” value (IKKε [3]; 3T3-L1 adipocytes treated with BJ alone) was “significantly increased”. The UCP1 expression (IKKε [3]; IKKε-knockdown 3T3-L1 adipocytes treated with BJ, vs IKKε-knockdown) was “not significantly altered”, the “cAMP accumulation, glycerol release, and UCP1 expression” value (IKKε [3]; IKKε-knockdown 3T3-L1 adipocytes, ISO stimulation, BJ vs IKKε-knockdown) was “did not significantly increase the above changes” and the “cAMP accumulation, glycerol release, and UCP1 expression” value (IKKε [3]; ISO-stimulated 3T3-L1 adipocytes, BJ treatment alone) was “significantly increased cAMP accumulation, glycerol release, and UCP1 expression”. For the same compound, the “Glycerol (Figure 9l)” value (IKKε [3]; siIKKϵ +, ISO +) was 176.805 µmol/L and 182.076 µmol/L and 176.254 µmol/L, the “UCP1 (western blotting, Figure 9J)” value (IKKε [3]; siIKKϵ +, ISO +) was 0.785 and 0.7814 and 0.8472 and the “cAMP (Figure 9k)” value (IKKε [3]; siIKKϵ +, ISO +) was 0.4194 pmol/mg protein and 0.4185 pmol/mg protein and 0.3432 pmol/mg protein and 0.371 pmol/mg protein and 0.3866 pmol/mg protein and 0.405 pmol/mg protein. The “Glycerol (Figure 9l)” value (IKKε [3]; siIKKϵ +, ISO -) was 89.0822 µmol/L and 96.3611 µmol/L and 91.9299 µmol/L, the “UCP1 (western blotting, Figure 9J)” value (IKKε [3]; siIKKϵ +, ISO -) was 0.6376 and 0.6905 and 0.6507 and the “cAMP (Figure 9k)” value (IKKε [3]; siIKKϵ +, ISO -) was 0.2155 pmol/mg protein and 0.2223 pmol/mg protein and 0.1908 pmol/mg protein and 0.2097 pmol/mg protein and 0.2158 pmol/mg protein and 0.2252 pmol/mg protein. For the same compound, the “Glycerol (Figure 9l)” value (IKKε [3]; siIKKϵ -, ISO +) was 156.977 µmol/L and 167.166 µmol/L and 170.891 µmol/L, the “UCP1 (western blotting, Figure 9J)” value (IKKε [3]; siIKKϵ -, ISO +) was 0.6574 and 0.7704 and 0.6754 and the “cAMP (Figure 9k)” value (IKKε [3]; siIKKϵ -, ISO +) was 0.362 pmol/mg protein and 0.3606 pmol/mg protein and 0.3205 pmol/mg protein and 0.3322 pmol/mg protein and 0.3416 pmol/mg protein and 0.3545 pmol/mg protein. For the same compound, the “Glycerol (Figure 9l)” value (IKKε [3]; siIKKϵ -, ISO -) was 81.5401 µmol/L and 78.1125 µmol/L and 83.122 µmol/L, the “UCP1 (western blotting, Figure 9J)” value (IKKε [3]; siIKKϵ -, ISO -) was 0.5736 and 0.639 and 0.5661 and the “cAMP (Figure 9k)” value (IKKε [3]; siIKKϵ -, ISO -) was 0.1756 pmol/mg protein and 0.1959 pmol/mg protein and 0.2053 pmol/mg protein and 0.1755 pmol/mg protein and 0.1805 pmol/mg protein and 0.1893 pmol/mg protein. For the same compound, the “IKKϵ (western blotting, Figure 9h)” value (IKKε [3]; siIKKϵ+10μM BJ) was 0.09311 and 0.1256 and 0.1406 and the “UCP1 (western blotting, Figure 9i)” value (IKKε [3]; siIKKϵ+10μM BJ) was 0.4915 and 0.4988 and 0.5593.

In the case of `COc1ccc2cc3[n+](cc2c1OC)CCc1cc2c(cc1-3)OCO2` [BBR, Berberine chloride dihydrate], the “BBR in adipose tissue (accumulation)” value [4] is reported as “not detected”.
